Activity calls are given as the source filed them. The rule behind the calls is not given here.
Experiments:
[1] = target: Neuraminidase (Influenza A virus) (UniProt B4URF0); assay: Inhibition of Influenza A virus (A/California/04/2009(H1N1)) wild-type neuraminidase using MU-NANA as substrate at 1000 nM after 1 hr
[2] = target: T1, Neuraminidase (Influenza A virus, UniProt B4URF0); parameters: species or system Influenza A virus (A/California/04/2009(H1N1))
[3] = target: T1, Neuraminidase; parameters: species or system Influenza A virus (A/Anhui/1/2005(H5N1))
[4] = target: T1, Neuraminidase; assay: Inhibition of Influenza A virus SN33 H1N1 neuraminidase using MU-NANA as substrate after 1 hr by spectrofluorometric analysis

T1 sequence (B4URF0 whole entry): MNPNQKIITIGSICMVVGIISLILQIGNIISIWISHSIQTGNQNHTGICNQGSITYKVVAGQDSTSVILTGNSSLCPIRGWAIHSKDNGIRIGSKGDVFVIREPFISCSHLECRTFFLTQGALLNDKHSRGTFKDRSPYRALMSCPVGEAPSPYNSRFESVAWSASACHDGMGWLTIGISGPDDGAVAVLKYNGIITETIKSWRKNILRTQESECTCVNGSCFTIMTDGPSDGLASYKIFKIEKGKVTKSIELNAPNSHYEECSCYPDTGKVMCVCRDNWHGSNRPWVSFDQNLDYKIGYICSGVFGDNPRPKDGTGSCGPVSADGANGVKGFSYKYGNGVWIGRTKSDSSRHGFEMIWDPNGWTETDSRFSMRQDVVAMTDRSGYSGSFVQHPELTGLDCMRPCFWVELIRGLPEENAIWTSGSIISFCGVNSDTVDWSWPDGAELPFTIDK
Chain of Neuraminidase (Influenza A virus) (B4URF0 as listed by the source): as the sequence (B4URF0 whole entry) above

Structure (SMILES) | inhibition [1] | further results
CCC(CC)O[C@@H]1C=C(C(=O)O)C[C@H](N/C(N)=N/C2CC2)[C@H]1NC(C)=O | inactive | –
CCC(CC)O[C@@H]1C=C(C(=O)O)C[C@H](N/C(N)=N/C(C)C)[C@H]1NC(C)=O | inactive | –
CC/N=C(\N)N[C@H]1CC(C(=O)O)=C[C@@H](OC(CC)CC)[C@@H]1NC(C)=O | inactive | –
CCC(CC)O[C@@H]1C=C(C(=O)O)C[C@H](N/C(N)=N/CC(F)(F)F)[C@H]1NC(C)=O | inactive | –
CCC(CC)O[C@@H]1C=C(C(=O)O)C[C@H](N/C(N)=N/O)[C@H]1NC(C)=O | – | IC50 [2]: 3.7 nM; IC50 [3]: 33 nM
CCC(CC)O[C@@H]1C=C(C(=O)O)C[C@H](N/C(N)=N/C)[C@H]1NC(C)=O | – | IC50 [2]: 1.73 nM; IC50 [3]: 3.6 nM
C=CC/N=C(\N)N[C@H]1CC(C(=O)O)=C[C@@H](OC(CC)CC)[C@@H]1NC(C)=O | inactive | –
CC(=O)N[C@H]1C([C@H](O)[C@H](O)CO)OC(C(=O)O)=C[C@@H]1NC(=N)NC(=O)CSc1ccc2ccccc2c1 (stereo partly specified) | – | IC50 [4]: 20 nM
CCC/N=C(\N)N[C@H]1CC(C(=O)O)=C[C@@H](OC(CC)CC)[C@@H]1NC(C)=O | inactive | –
